From ChEMBL document CHEMBL1145584, “Cycloalkyl-substituted aryl chloroethylureas inhibiting cell cycle progression in G0/G1 phase and thioredoxin-1 nuclear translocation” (2008)
Calls of active or inactive are those of the source. The rule behind the calls is not given here.

Tests used:
MCF7 [1] = assay: Cell cycle arrest in human MCF7 cells assessed as increase in G0/G1 phase accumulation at 50 uM after 16 hrs by FACS analysis; format: functional
MCF7 [2] = assay: Antiproliferative activity against human MCF7 cells; format: functional
M21 [3] = assay: Antiproliferative activity against human M21 cells; format: functional
MCF7 [4] = assay: Cell cycle arrest in human MCF7 cells assessed as increase in G2/M phase accumulation at 50 uM after 16 hrs by FACS analysis; format: functional
M21 [5] = assay: Effect on thioredoxin-1 nuclear translocation in human M21 cells at 50 uM by immunocytochemistry analysis; format: functional, cell-based
MCF7 [6] = assay: Cell cycle arrest in human MCF7 cells assessed as increase in S phase accumulation at 50 uM after 16 hrs by FACS analysis; format: functional
HT-29 [7] = assay: Antiproliferative activity against human HT29 cells; format: functional
MCF7 [8] = assay: Cell cycle arrest in human MCF7 cells assessed as increase in G2/M phase accumulation at 4 times GI50 after 25 hrs by flow cytometry; format: functional, cell-based
MCF7 [9] = assay: Cell cycle arrest in human MCF7 cells assessed as increase in G2/M phase accumulation at 25 uM after 16 hrs by FACS analysis; format: functional
MCF7 [10] = assay: Cell cycle arrest in human MCF7 cells assessed as increase in S phase accumulation at 25 uM after 16 hrs by FACS analysis; format: functional
MCF7 [11] = assay: Cell cycle arrest in human MCF7 cells assessed as increase in G2/M phase accumulation at 2 times GI50 after 25 hrs by flow cytometry; format: functional, cell-based
MCF7 [12] = assay: Cell cycle arrest in human MCF7 cells assessed as increase in G0/G1 phase accumulation at 25 uM after 16 hrs by FACS analysis; format: functional
MCF7 [13] = assay: Cell cycle arrest in human MCF7 cells assessed as increase in G2/M phase accumulation at 1 time GI50 after 25 hrs by flow cytometry; format: functional, cell-based
MCF7 [14] = assay: Cell cycle arrest in human MCF7 cells assessed as increase in S phase accumulation at 0.1 uM after 16 hrs by FACS analysis; format: functional
MCF7 [15] = assay: Cell cycle arrest in human MCF7 cells assessed as increase in G0/G1 phase accumulation at 0.1 uM after 16 hrs by FACS analysis; format: functional
MCF7 [16] = assay: Cell cycle arrest in human MCF7 cells assessed as increase in G2/M phase accumulation at 0.1 uM after 16 hrs by FACS analysis; format: functional
M21 [17] = assay: Antiproliferative activity against human M21 cells at 100 uM; format: functional, cell-based
MCF7 [18] = assay: Antiproliferative activity against human MCF7 cells at 100 uM; format: functional, cell-based
HT-29 [19] = assay: Antiproliferative activity against human HT29 cells at 100 uM; format: functional, cell-based
M21 [20] = assay: Effect on thioredoxin-1 nuclear translocation in human M21 cells at 25 uM by immunocytochemistry analysis; format: functional, cell-based
M21 [21] = assay: Effect on thioredoxin-1 nuclear translocation in human M21 cells at 50 uM after 24 hrs by Western blot analysis; format: functional, cell-based
MCF7 [22] = assay: Cell cycle arrest in human MCF7 cells assessed as increase in G0/G1 phase accumulation at 2 times GI50 after 25 hrs by flow cytometry; format: functional, cell-based
MCF7 [23] = assay: Cell cycle arrest in human MCF7 cells assessed as increase in G0/G1 phase accumulation at 4 times GI50 after 25 hrs by flow cytometry; format: functional, cell-based
M21 [24] = assay: Effect on thioredoxin-1 nuclear translocation in human M21 cells at 30 uM after 24 hrs by Western blot analysis; format: functional, cell-based
MCF7 [25] = assay: Cell cycle arrest in human MCF7 cells assessed as increase in G0/G1 phase accumulation at 1 time GI50 after 25 hrs by flow cytometry; format: functional, cell-based
M21 [26] = assay: Effect on thioredoxin-1 nuclear translocation in human M21 cells at 25 uM after 24 hrs by Western blot analysis; format: functional, cell-based

| Compound | GI50 (MCF7 [2]) [µM] | GI50 (HT-29 [7]) [µM] | Activity (MCF7 [1]) [%] | GI50 (M21 [3]) [µM] | Activity (MCF7 [4]) [%] | Activity (M21 [5]) | Activity (MCF7 [6]) [%] | further results |
| --- | --- | --- | --- | --- | --- | --- | --- | --- |
| CC(=O)O[C@H]1C(=O)[C@@]2(C)[C@H]([C@H](OC(=O)c3ccccc3)[C@]3(O)C[C@H](OC(=O)[C@H](O)[C@@H](NC(=O)c4ccccc4)c4ccccc4)C(C)=C1C3(C)C)[C@]1(OC(C)=O)CO[C@@H]1C[C@@H]2O [PACLITAXEL] | – | – | – | – | – | – | – | Activity (MCF7 [14]): 11%; Activity (MCF7 [15]): 9%; Activity (MCF7 [16]): 80% |
| O=C(NCCCl)Nc1cccc(Oc2ccccc2)c1 | 24 | 5.6 | 44 | 16 | 30 | inactive | 26 | – |
| CCNC(=O)Nc1ccc(C2CCCCC2)cc1 | – | – | 55 | – | 22 | – | 23 | Activity (M21 [17]): inactive; Activity (MCF7 [18]): inactive; Activity (HT-29 [19]): inactive |
| O=C(NCCCl)Nc1ccc(Oc2ccccc2)cc1 | 9.1 | 2.4 | – | 5.2 | – | – | – | Activity (MCF7 [9]): 65%; Activity (MCF7 [10]): 20%; Activity (M21 [20]): inactive; Activity (MCF7 [12]): 15% |
| O=C(NCCCl)Nc1ccc(OC2CCCCC2)cc1 | 45 | 23 | 57 | 36 | 14 | Active | 29 | – |
| O=C(NCCCl)Nc1ccc(I)cc1 | – | – | – | – | – | – | – | Activity (MCF7 [9]): 42%; Activity (MCF7 [10]): 33%; Activity (M21 [20]): Active; Activity (MCF7 [12]): 25% |
| CC(C)(C)c1ccc(NC(=O)NCCCl)cc1 | – | – | – | – | – | – | – | Activity (MCF7 [9]): 58%; Activity (M21 [26]): inactive; Activity (MCF7 [10]): 24%; Activity (MCF7 [12]): 17%; Activity (M21 [24]): inactive |
| O=C(NCCCl)Nc1ccc2ccccc2c1 | 5.6 | 1.9 | 17 | 4.1 | 45 | Active | 38 | – |
| COc1cc2c(c(OC)c1OC)-c1ccc(OC)c(=O)cc1[C@@H](NC(C)=O)CC2 [COLCHICINE] | – | – | – | – | – | – | – | Activity (MCF7 [14]): 19%; Activity (MCF7 [15]): 19%; Activity (MCF7 [16]): 62% |

The remaining molecules from weak to strong by GI50 (MCF7 [2]), led by results:

| GI50 (MCF7 [2]) [µM] | GI50 (HT-29 [7]) [µM] | Compound | Activity (MCF7 [1]) [%] | GI50 (M21 [3]) [µM] | Activity (MCF7 [4]) [%] | Activity (M21 [5]) | Activity (MCF7 [6]) [%] | further results |
| --- | --- | --- | --- | --- | --- | --- | --- | --- |
| 49 | 31 | O=C(NCCCl)Nc1ccc(OC2CCCC2)cc1 | 72 | 38 | 9 | Active | 19 | – |
| 35 | 9.9 | O=C(NCCCl)Nc1cccc(OC2CCCC2)c1 | 64 | 22 | 12 | Active | 24 | – |
| 25 | 7.9 | O=C(NCCCl)Nc1cccc(OC2CCCCC2)c1 | 59 | 20 | 8 | Active | 33 | – |
| 22 | 19 | O=C(NCCCl)NC1c2ccccc2-c2ccccc21 | 63 | 27 | 8 | Active | 29 | – |
| 21 | 10.7 | O=C(NCCCl)Nc1cccc(OC2CCCCCC2)c1 | 72 | 20 | 6 | Active | 22 | – |
| 21 | 12.6 | O=C(NCCCl)Nc1ccc(C2CCCCC2)cc1 | 71 | 21 | 13 | Active | 16 | Activity (M21 [21]): Active; Activity (MCF7 [22]): Active; Activity (MCF7 [23]): Active; Activity (M21 [24]): Active; Activity (MCF7 [25]): Active |
| 19 | 12.5 | O=C(NCCCl)Nc1ccc(OC2CCCCCC2)cc1 | 75 | 18 | 6 | Active | 19 | – |
| 14.1 | 3.6 | O=C(NCCCl)Nc1ccc2c(c1)CCC2 | – | 8 | – | – | – | Activity (MCF7 [8]): Active; Activity (MCF7 [9]): 40%; Activity (MCF7 [10]): 29%; Activity (MCF7 [11]): Active; Activity (MCF7 [12]): 31%; Activity (MCF7 [13]): Active |
| 8.3 | 25 | CCC(C)SSc1ncc[nH]1 (stereo not drawn) [PX-12] | – | 8.3 | – | – | – | Activity (MCF7 [9]): 58%; Activity (MCF7 [10]): 13%; Activity (MCF7 [12]): 29% |
